Measured values reported in the METLIN SMRT retention time set (Domingo-Almenara et al. 2019).

Experiment: gradient 5% acetonitrile 3 min, to 50% in 2 min, to 85% in 15 min, held 3 min, 100 µL/min
Settings: column: Zorbax Extend-C18 2.1 x 50 mm; eluents: water / acetonitrile, 0.1% formic acid
How it was run: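 Retention times of pure standards were taken from adduct peaks that were selected by computer and manually inspected. Over 3 months, mixtures of ~100 molecules were run by HPLC–quadrupole time-of-flight mass spectrometry in positive and negative ionization mode. The Zorbax Extend-C18 column (2.1 × 50 mm, 1.8 μm) ran at 100 μL/min in water and acetonitrile, each containing 0.1% formic acid, with 40 μL dead volume and 900 μL dwell volume.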

| RP-LC retention time | SMILES |
| --- | --- |
| 655 s | CC1CN2C=NC(N3CCN(C(=O)Nc4ccc5c(c4)CCC5)CC3)=CC2=N1 (stereo unspecified) |
| 691 s | CCc1noc(-c2ccc(-n3cnc(C(=O)N4CCOCC4)c3)nc2)n1 |
| 708 s | O=C(NCc1ccco1)C1CCN(c2ccc3nnc(-c4ccccc4F)n3n2)CC1 |
| 885 s | Cc1ccc2c(c1)C(c1ccc(F)cc1)N(C(=O)c1ccc(S(=O)(=O)N(C)C)cc1)CC(=O)N2 (stereo unspecified) |
| 694 s | CCCN(CCC)C(=O)C1CCN(S(=O)(=O)c2ccc3c(c2)CCCC(=O)N3)CC1 |
| 864 s | Cc1ccc(C)c(NC(=O)Cn2nc3c(N4CCC(C)CC4)nccn3c2=O)c1 |
| 1020 s | CC(C)c1noc(C2(NC(=O)c3ccccc3F)CCCCC2)n1 |
| 602 s | Cc1cccc(C)c1NC(=O)N1CCN(CCn2c(C(C)C)nc3cccnc32)CC1 |
| 706 s | COCCOC1CCC12CCN(C(=O)c1conc1C)CC2 (stereo unspecified) |
| 1380 s | Cc1nn(-c2nc(CC(=O)Nc3nc(-c4ccccc4)cs3)cs2)c(C)c1Cc1ccccc1 |
| 848 s | COc1ccc(CC(=O)Nc2nnc(SCc3nnc(-c4ccccc4)o3)s2)cc1 |
| 815 s | COc1ccccc1NC(=O)c1c(NC(=O)C(C)C)sc2c1CCC2 |
| 836 s | COc1ccccc1-c1nc2nccc(-c3ccco3)n2n1 |
| 1170 s | Cc1ccc(OCc2nc(Cc3nc(-c4ccccc4)oc3C)no2)cc1 |
| 1050 s | CC(C)c1ccc(S(=O)(=O)N2CCC(C)(C(=O)NCc3ccccc3)CC2)cc1 |
| 1220 s | CCCOc1nc2ccccc2nc1N1CCCC(C(=O)NCc2cccc(C)c2)C1 (stereo unspecified) |
| 951 s | Cc1cc(C)n(Cc2nc(-c3ccc(NC(=O)c4sccc4C)cc3)oc2C)n1 |
| 594 s | CN(C)c1cccc(C(=O)Nc2cccc(-c3nnc4n3CCCC4)c2)c1 |
| 976 s | O=C(Nc1ccc(F)cc1F)C1CCCN(S(=O)(=O)Cc2ccc(F)cc2)C1 (stereo unspecified) |
| 814 s | CCC1(C(=O)NCc2ccc(C(C)C)cc2)CCCCC(=O)N1 (stereo unspecified) |
| 1040 s | CC(C)c1noc(-c2cc(=O)n(CC(=O)Nc3cc(F)ccc3F)c3ccccc23)n1 |
| 919 s | CCC[C@@H](NC(=O)N1C(=O)C(CC)(CC)[C@@H]1Oc1ccc(C(=O)N2CCN(C)CC2)cc1)c1ccc2c(c1)OCO2 |

| RP-LC retention time | SMILES |
| --- | --- |
| 1150 s | CSc1cccc(NC(=O)c2nnn(Cc3ccc(F)cc3)c2-n2cccc2)c1 |
| 839 s | COc1ccc(C)cc1NS(=O)(=O)c1cc2c(s1)CCN(C(=O)C1CC1)C2 |
| 810 s | Cc1ccc(N2CCC(NC(=O)c3ccc(N(C)C)cc3)C2=O)cc1 (stereo unspecified) |
| 690 s | Cc1ccc(-c2cc(C(N)=O)[nH]n2)cc1C |
| 1130 s | CCCn1c(=O)c(N2CCN(C(=O)CC3CCCC3)CC2)nc2ccccc21 |
| 756 s | CCc1ccccc1NS(=O)(=O)c1ccc2c(c1)CCCC(=O)N2 |
| 600 s | Cc1cc(C)n(CCC(=O)N2C[C@H]3C[C@H](C2)[C@H]2CCCC(=O)N2C3)n1 |
| 636 s | Cc1ccc(-n2nnc(C(=O)O)c2-c2ccncc2)cc1 |
| 1010 s | CC(C)c1ccc(CNC(=O)c2nnc(-c3ccc(S(=O)(=O)N(C)C)cc3)o2)cc1 |
| 819 s | CCOCCCNC(=O)C1CCN(c2cc(Oc3cccc(C)c3C)ncn2)CC1 |
| 878 s | Cc1[nH]c(C(=O)N2CCC(CC(=O)NCc3ccc(Cl)cc3)CC2)c(C)c1C(=O)OC(C)C |
| 613 s | COc1ccccc1CNC(=O)CN1C(=O)CSc2cccn2-c2ccccc21 |
| 882 s | COc1ccc(S(=O)(=O)N2CCc3c(c(-c4nnc(-c5ccccc5F)o4)nn3C)C2)cc1 |
| 794 s | COc1ccc(CNC2=NCCNC23CCN(S(=O)(=O)c2cc(C)c(C)cc2C)CC3)cc1 |
| 880 s | CC(CCc1ccccc1)NC(=O)Cn1nc2c(Oc3ccccc3)nccn2c1=O (stereo unspecified) |
| 795 s | Cn1c(C(=O)NCCCN2CCCCCC2)cc2c(-c3cccs3)nn(-c3ccccc3)c21 |
| 1150 s | O=C(Nc1ccc2c(c1)OCCO2)c1c(O)c2cccnc2n(-c2ccccc2)c1=O |
| 712 s | CCOc1ccc(CNC(=O)C2CCN(C(=O)C3Sc4ccccc4NC3=O)CC2)cc1OC (stereo unspecified) |
| 1080 s | Cc1ccc(NC(=O)c2cn(C)nc2S(=O)(=O)N2CCSCC2)cc1Cl |
| 670 s | CCOc1ccc(NC(=O)NCC(c2cccnc2)c2c[nH]c3ccccc23)cc1 (stereo unspecified) |
| 885 s | CCCN1C(=O)COc2cc(-c3noc(C(=O)N4CCCC4)n3)ccc21 |
| 544 s | O=C(CC1CCNCC1)N1CCC(CCOc2cccnc2)CC1 |

| RP-LC retention time | SMILES |
| --- | --- |
| 653 s | Cc1ccn2c(NC(=O)c3ccccc3F)c(-c3ccccc3)nc2c1 |
| 653 s | CCCNC(=O)N1CCC(N2CCN(Cc3ccccc3)C(=O)C2=O)CC1 |
| 587 s | NC(=O)C1CCN(C(=O)NC2CC(=O)N(c3ccc(Cl)cc3)C2)CC1 (stereo unspecified) |
| 707 s | NC1=NCC2c3ccccc3Cc3ccccc3N12 (stereo unspecified) |
| 862 s | CCCCN1N=C(C(=O)N2CCOCC2)S(=O)(=O)c2cc(Cl)ccc21 |
| 794 s | O=C(C1COc2ccccc2O1)N1CCOc2ccc(N3CCCC3)cc2C1 (stereo unspecified) |
| 612 s | Cc1ccc(NC(=O)N2CCC(CCN)CC2)cc1F |
| 706 s | O=C1Cc2cc(NC(=O)NC(c3ccccc3)c3ccccc3)ccc2N1 |
| 637 s | COc1ccc(NC(=O)C2CCCN(c3cc(=O)n(C)c(=O)n3C)C2)cc1OC (stereo unspecified) |
| 993 s | COc1ccc(N2C(=O)C3N=NN(Cc4nc(-c5cccc(C)c5)no4)C3C2=O)cc1 (stereo unspecified) |
| 811 s | CCNC(=O)c1nc(C(=O)NCc2ccc(C)cc2)cs1 |
| 720 s | COc1ccccc1/C=C/C(=O)N1CCC(c2cc(N)on2)CC1 |
| 748 s | O=C(Cn1cnc2nc3c(cc2c1=O)CCCC3)N1CCN(c2ccccc2)CC1 |
| 660 s | Cc1cc(N2CCN(C(=O)Nc3ccc4c(c3)OCO4)CC2)nc(N2CCCCC2)n1 |
| 1210 s | COc1ccc(-c2nc(NCCCN3CCC(N4CCCCC4)CC3)c3ccccc3n2)cc1 |
| 936 s | Cc1ccc(CNC(=O)C2(C)CCN(C(=O)Nc3cc(Cl)ccc3C)CC2)cc1 |
| 836 s | Cc1ccc(NC(=O)C2CCN(S(=O)(=O)c3cc(C(=O)N4CCCC4)n(C)c3)CC2)cc1C |
| 846 s | O=C(NCc1ccco1)Nc1cccc([N+](=O)[O-])c1 |
| 851 s | Cc1ccc(Cl)cc1N1CCN(c2cc(C(=O)O)c3cc(NC(=O)C4CCCC4)ccc3n2)CC1 |
| 687 s | Cc1ccc(NC(=O)CC2COc3ccccc3NC2=O)cc1C (stereo unspecified) |
| 585 s | Cc1ccsc1CN1CCCC1c1nnc2n1CCN(C(=O)C(C)C)CC2 (stereo unspecified) |
| 602 s | Cn1nc(CO)c2c1CCN(C(=O)c1cc(-c3cccs3)[nH]n1)C2 |
